What was measured:
[1] = dosages up to 30 g for a few days, per os; cited from earlier work
[2] = Stability of Creatine amides in human blood plasma (RP-HPLC peak areas, 37° C.)
Description: The detection was carried out on the wave length 220 nm. The samples dosing on the column was carried out by the loop 20 μl.
(§1) For the study of Creatine amides stability, 1 ml of water or blood plasma was added to 200 μl of aqueous solution of starting amide with a concentration of 2÷3 mg/ml then shaken; a probe volume of 200 μl was taken up immediately and analysis of an initial concentration of the Creatine amide was carried out. Further, the solution was placed into a vibro-thermostat at a temperature of 37° C., then aliquote 200 μl was taken up in 0.5, 1, and 3 hours of thermostatics. 20 μl 10% solution of trichloroacetic acid was added to the taken probe, and kept for 15 min at temperature (−)24° C., then centrifuged at 6000×g for 5 minutes for sedimentation of plasma proteins, supernatant was taken up and its analysis was carried out.
(§2) For evaluation of samples' stability, peak areas of a corresponding compound at the beginning of experiment and at selected time intervals were compared (Tables 1, 2).

[3] = Stability of Creatine amides in rat blood plasma (RP-HPLC peak areas, 37° C.)
Description: Study of the Creatine derivatives stability in aqueous solution, as well as in human and rat blood plasma was carried out by the method of Reversed Phase HPLC using a chromatography system, known as Beckman System Gold™ (USA) in the following configuration: Programmable Solvent Module 126, Manual Injector Rheodyne 7725i, Programmable Detector Module 166, featured with the Beckman System Gold Chromatography Software™. The analysis was carried out on the column Luna 5μ C18(2) 100 Å 150×4.6 mm (Phenomenex, USA) with the precolumn Guard Cartridge C18 at the flow rate 1 ml/min in the linear gradient of acetonitrile: for analogue from the Example 1 from 5 to 25% of acetonitrile in 20 min (A: 0.1% of […]—H2O, B: 0.1% of H3PO4-acetonitrile), in case of substance from the Examples 2÷8: from 3 to 23% of acetonitrile in 20 minutes. The detection was carried out on the wave length 220 nm. The samples dosing on the column was carried out by the loop 20 μl.
as §1, §2

[4] = peak area relative to start, 37° C.

Row | SMILES | Stability in human blood plasma, 0 h [2, 4] [%] | Stability in human blood plasma, 0 h ([2]; human, plasma) [%] | Stability in human blood plasma, 0.5 h ([2]; human, plasma) [%] | Stability in human blood plasma, 1 h ([2]; human, plasma) [%] | Stability in human blood plasma, 3 h ([2]; human, plasma) [%] | Stability in a rat blood plasma, 0 h ([3]; rat, plasma) [%] | Stability in a rat blood plasma, 0.5 h ([3]; rat, plasma) [%] | Stability in a rat blood plasma, 1 h ([3]; rat, plasma) [%] | Stability in a rat blood plasma, 3 h ([3]; rat, plasma) [%] | also measured
1 | CN(CC(=O)O)C(=N)N.O [Creatine monohydrate] | – | – | – | – | – | – | – | – | – | Increase of the total Creatine content in a human's skeleton muscles [1]: more than 20%
2 | CC(=O)O.CCOC(=O)CCCNC(=O)CN(C)C(=N)N [Example 1, Creatinyl-γ-Aminobutyric Acid Ethyl Ester Acetate] | 100 | – | – | – | – | – | – | – | – | Stability in human blood plasma, 0.5 h [2, 4]: 99%; Stability in human blood plasma, 1 h [2, 4]: 103%; Stability in human blood plasma, 3 h [2, 4]: 104%; Stability in a rat blood plasma, 0 h [3, 4]: 100%; Stability in a rat blood plasma, 0.5 h [3, 4]: 96%; Stability in a rat blood plasma, 1 h [3, 4]: 98%; Stability in a rat blood plasma, 3 h [3, 4]: 99%
3 | CN(CC(=O)NCC(=O)OCc1ccccc1)C(=N)N.Cl [Example 4, Creatinyl-Glycine Benzyl Ester Hydrochloride] | – | 100 | 98 | 100 | 99 | 100 | 99 | 99 | 96 | –
4 | CN(CC(=O)N[C@@H](Cc1ccccc1)C(N)=O)C(=N)N.O [Example 2, Creatinyl-L-Phenylalanine Amide Hydrate] | – | 100 | 99 | 99 | 100 | 100 | 100 | 97 | 98 | –
5 | CN(CC(=O)N[C@@H](Cc1ccccc1)C(=O)O)C(=N)N.Cl [Example 8, Creatinyl-Phenylalanine hydrochloride] | 100 | – | – | – | – | – | – | – | – | Stability in human blood plasma, 0.5 h [2, 4]: 99%; Stability in human blood plasma, 1 h [2, 4]: 98%; Stability in human blood plasma, 3 h [2, 4]: 97%; Stability in a rat blood plasma, 0 h [3, 4]: 100%; Stability in a rat blood plasma, 0.5 h [3, 4]: 98%; Stability in a rat blood plasma, 1 h [3, 4]: 98%; Stability in a rat blood plasma, 3 h [3, 4]: 95%
6 | CCOC(=O)CNC(=O)[C@H](CCCNC(=N)N)NC(=O)[C@H](Cc1ccccc1)NC(=O)CN(C)C(=N)N [Example 7, Creatinyl-Phenylalanyl-Arginyl-Glycine Ethyl Ester Acetate] | – | 100 | – | – | – | 100 | – | – | – | remaining at 0.5 h ([2]; human, plasma): 94%; remaining at 1 h ([2]; human, plasma): 90%; remaining at 3 h ([2]; human, plasma): 85%; remaining at 0.5 h ([3]; rat, plasma): 93%; remaining at 1 h ([3]; rat, plasma): 92%; remaining at 3 h ([3]; rat, plasma): 85%
7 | CC(=O)O.CN(CC(=O)N[C@@H](Cc1ccccc1)C(N)=O)C(=N)N [Example 3, Creatinyl-L-Phenylalanine Amide Acetate] | – | 100 | 100 | 100 | 100 | 100 | 96 | 98 | 99 | –
8 | CN(CC(=O)OCc1ccccc1)C(=N)N [Creatine benzyl ester, reference compound] | 100 | – | – | – | – | – | – | – | – | Decrease of concentration in human blood plasma ([2]; during 0.75 hours): 53%; remaining at 0.75 h ([2]; human, blood plasma): 53%; remaining at 3 h ([2]; human, blood plasma): 46%

Reference: US8350077B2 (VERTEX Closed Joint Stock Company, priority 2008, dated 2013)
